Measurements from patent publication US20260262643A1, “HERBICIDAL BENZOXAZINES” (FMC CORPORATION, priority 2022, published 2026).

Assays:
green foxtail [1] = test: Test C preemergence; type: in vivo, Setaria viridis; details: for Foxtail, Green plant response rating: preemergence; for Plant response rating, Foxtail, Green: Preemergence
Summary of the method: (§1)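 Pre: seeds in loam/sand, directed soil spray. Post: 1–2 leaf plants, 2–10 cm. Cmpd in non-phytotoxic solvent + surfactant. Greenhouse 10 d; visual rating vs untreated, 0 = none, 100 = complete control.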

rice = test: Test D flooded paddy test; type: in vivo, Oryza sativa; details: 250 g ai/ha, applied to paddy water, visual rating after 13 to 14 days, scale 0 to 100 (0 no effect, 100 complete control)
Summary of the method: (§2)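 Post-flood water application at the 2-leaf stage; 3 cm flood depth kept constant; visual control rating 0–100 after 13–14 days greenhouse growth.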

pigweed, palmer [2] = test: Test C postemergence; type: in vivo, Amaranthus palmeri; details: 10 days
Summary of the method: as §1

green foxtail [3] = test: Test C postemergence; type: in vivo, Setaria viridis; details: 10 days
Summary of the method: as §1

corn [4] = test: Test C postemergence; type: in vivo, Zea mays; details: 10 days
Summary of the method: as §1

barnyardgrass [5] = test: Test D flooded paddy test; type: in vivo, Echinochloa crus-galli; details: 250 g ai/ha, applied to paddy water, visual rating after 13 to 14 days, scale 0 to 100 (0 no effect, 100 complete control)
Summary of the method: as §2

oat, wild [6] = test: Test C preemergence; type: in vivo, Avena fatua; details: for Oat, Wild plant response rating: preemergence; for Plant response rating, Oat, Wild: Preemergence
Summary of the method: as §1

pigweed, palmer [7] = test: Test C preemergence; type: in vivo, Amaranthus palmeri; details: for Pigweed, Palmer plant response rating: preemergence; for Plant response rating, Pigweed, Palmer: Preemergence
Summary of the method: as §1

ryegrass, Italian [8] = test: Test C postemergence; type: in vivo, Lolium multiflorum; details: 10 days
Summary of the method: as §1

horseweed = test: Test C postemergence; type: in vivo, Erigeron canadensis; details: 10 days
Summary of the method: as §1

barnyardgrass [9] = test: Test C preemergence; type: in vivo, Echinochloa crusgalli; details: for Barnyardgrass plant response rating: preemergence; for Plant response rating, Barnyardgrass: Preemergence
Summary of the method: as §1

wheat [10] = test: Test C postemergence; type: in vivo, Triticum aestivum; details: 10 days
Summary of the method: as §1

soybean [11] = test: Test C postemergence; type: in vivo, Glycine max; details: 10 days
Summary of the method: as §1

corn [12] = test: Test C preemergence; type: in vivo, Zea mays; details: for Corn plant response rating: preemergence; for Plant response rating, Corn: Preemergence
Summary of the method: as §1

blackgrass [13] = test: Test C preemergence; type: in vivo, Alopecurus myosuroides; details: for Blackgrass plant response rating: preemergence; for Plant response rating, Blackgrass: Preemergence
Summary of the method: as §1

ryegrass, Italian [14] = test: Test C preemergence; type: in vivo, Lolium multiflorum; details: for Ryegrass, Italian plant response rating: preemergence; for Plant response rating, Ryegrass, Italian: Preemergence
Summary of the method: as §1

oat, wild [15] = test: Test C postemergence; type: in vivo, Avena fatua; details: 10 days
Summary of the method: as §1

sedge, umbrella = test: Test D flooded paddy test; type: in vivo, Cyperus difformis; details: 250 g ai/ha, applied to paddy water, visual rating after 13 to 14 days, scale 0 to 100 (0 no effect, 100 complete control)
Summary of the method: as §2

barnyardgrass [16] = test: Test C postemergence; type: in vivo, Echinochloa crusgalli; details: 10 days
Summary of the method: as §1

soybean [17] = test: Test C preemergence; type: in vivo, Glycine max; details: for Soybean plant response rating: preemergence; for Plant response rating, Soybean: Preemergence
Summary of the method: as §1

ragweed [18] = test: Test C postemergence; type: in vivo, Ambrosia artemisiifolia; details: 10 days
Summary of the method: as §1

kochia [19] = test: Test C preemergence; type: in vivo, Bassia scoparia; details: for Kochia plant response rating: preemergence; for Plant response rating, Kochia: Preemergence
Summary of the method: as §1

ducksalad = test: Test D flooded paddy test; type: in vivo, Heteranthera limosa; details: 250 g ai/ha, applied to paddy water, visual rating after 13 to 14 days, scale 0 to 100 (0 no effect, 100 complete control)
Summary of the method: as §2

blackgrass [20] = test: Test C postemergence; type: in vivo, Alopecurus myosuroides; details: 10 days
Summary of the method: as §1

wheat [21] = test: Test C preemergence; type: in vivo, Triticum aestivum; details: for Wheat plant response rating: preemergence; for Plant response rating, Wheat: Preemergence
Summary of the method: as §1

kochia [22] = test: Test C postemergence; type: in vivo, Bassia scoparia; details: 10 days
Summary of the method: as §1

ragweed [23] = test: Test C preemergence; type: in vivo, Ambrosia artemisiifolia; details: for Ragweed plant response rating: preemergence; for Plant response rating, Ragweed: Preemergence
Summary of the method: as §1

[24] = 500 g ai/ha, 0 to 100 scale (0 no effect, 100 complete control)
[25] = 125 g ai/ha, 0 to 100 scale, 0 no effect, 100 complete control
[26] = 500 g ai/ha, postemergence, 0 to 100 scale (0 no effect, 100 complete control)
[27] = Postemergence, 125 g ai/ha, 0 to 100 scale (0 no effect, 100 complete control)
[28] = 500 g ai/ha, visual rating after 10 days, 0 to 100 scale (0 no effect, 100 complete control)
[29] = Test C, 125 g ai/ha, 0 to 100 scale (0 no effect, 100 complete control)
[30] = 125 g ai/ha, postemergence, 0 to 100 scale, 0 no effect, 100 complete control
[31] = Postemergence, 500 g ai/ha, visual 0 to 100 scale (0 no effect, 100 complete control)

Compound: Cc1ccc(-n2cnc(C3(C#N)CC3)n2)cc1C(=O)N1C[C@H](C)Oc2c(Cl)cccc21 [Compound 398]
- Foxtail, Green plant response rating (green foxtail [1]; [24]): 100
- Plant response rating, Foxtail, Green (green foxtail [1]; [25]): 100
- Plant response rating, Rice (Flood) (rice): 15
- Plant response rating, Pigweed, Palmer (pigweed, palmer [2]; [26]): 100
- Plant response rating, Pigweed, Palmer (pigweed, palmer [2]; [27]): 90
- Plant response rating, Foxtail, Green (green foxtail [3]; [26]): 90
- Plant response rating, Foxtail, Green (green foxtail [3]; [27]): 70
- Plant response rating, Corn (corn [4]; [26]): 80
- Plant response rating, Corn (corn [4]; [27]): 10
- Plant response rating, Barnyardgrass (Flood) (barnyardgrass [5]): 25
- Oat, Wild plant response rating (oat, wild [6]; [24]): 40
- Plant response rating, Oat, Wild (oat, wild [6]; [25]): 0
- Pigweed, Palmer plant response rating (pigweed, palmer [7]; [24]): 100
- Plant response rating, Pigweed, Palmer (pigweed, palmer [7]; [25]): 100
- Plant response rating, Ryegrass, Italian (ryegrass, Italian [8]; [27]): 30
- Plant response rating, Horseweed (horseweed; [26]): 60
- Plant response rating, Horseweed (horseweed; [27]): 60
- Barnyardgrass plant response rating (barnyardgrass [9]; [24]): 90
- Plant response rating, Barnyardgrass (barnyardgrass [9]; [25]): 60
- Plant response rating, Wheat (wheat [10]; [27]): 20
- Plant response rating, Soybean (soybean [11]; [27]): 20
- Corn plant response rating (corn [12]; [24]): 0
- Plant response rating, Corn (corn [12]; [25]): 0
- Blackgrass plant response rating (blackgrass [13]; [24]): 40
- Plant response rating, Blackgrass (blackgrass [13]; [25]): 30
- Ryegrass, Italian plant response rating (ryegrass, Italian [14]; [24]): 80
- Plant response rating, Ryegrass, Italian (ryegrass, Italian [14]; [25]): 40
- Plant response rating, Oat, Wild (oat, wild [15]; [26]): 60
- Plant response rating, Oat, Wild (oat, wild [15]; [27]): 0
- Plant response rating, Sedge, Umbrella (Flood) (sedge, umbrella): 45
- Plant response rating, Barnyardgrass (barnyardgrass [16]; [26]): 50
- Plant response rating, Barnyardgrass (barnyardgrass [16]; [27]): 20
- Soybean plant response rating (soybean [17]; [24]): 60
- Plant response rating, Soybean (soybean [17]; [25]): 40
- Plant response rating, Ragweed (ragweed [18]; [27]): 70
- Kochia plant response rating (kochia [19]; [24]): 100
- Plant response rating, Kochia (kochia [19]; [25]): 90
- Plant response rating, Ducksalad (Flood) (ducksalad): 15
- Plant response rating, Blackgrass (blackgrass [20]; [26]): 90
- Plant response rating, Blackgrass (blackgrass [20]; [27]): 70
- Wheat plant response rating (wheat [21]; [24]): 20
- Plant response rating, Wheat (wheat [21]; [25]): 0
- Plant response rating, Kochia (kochia [22]; [26]): 90
- Plant response rating, Kochia (kochia [22]; [27]): 90
- Ragweed plant response rating (ragweed [23]; [24]): 30
- Plant response rating, Ragweed (ragweed [23]; [25]): 0

Compound: COc1cc(C(=O)N2C[C@H](C)Oc3c(Cl)cccc32)cc(-n2cnc(C3CCC3)n2)c1 [Compound 214]
- Plant response rating, Foxtail, Green (green foxtail [1]; [28]): 100
- Foxtail, Green plant response rating (green foxtail [1]; [29]): 100
- Plant response rating, Rice (Flood) (rice): 0
- Plant response rating, Pigweed, Palmer (pigweed, palmer [2]; [30]): 100
- Plant response rating, Pigweed, Palmer (pigweed, palmer [2]; [31]): 100
- Plant response rating, Foxtail, Green (green foxtail [3]; [30]): 30
- Plant response rating, Foxtail, Green (green foxtail [3]; [31]): 80
- Plant response rating, Corn (corn [4]; [30]): 60
- Plant response rating, Corn (corn [4]; [31]): 70
- Plant response rating, Barnyardgrass (Flood) (barnyardgrass [5]): 0
- Plant response rating, Oat, Wild (oat, wild [6]; [28]): 80
- Oat, Wild plant response rating (oat, wild [6]; [29]): 0
- Plant response rating, Pigweed, Palmer (pigweed, palmer [7]; [28]): 100
- Pigweed, Palmer plant response rating (pigweed, palmer [7]; [29]): 100
- Plant response rating, Ryegrass, Italian (ryegrass, Italian [8]; [30]): 20
- Plant response rating, Ryegrass, Italian (ryegrass, Italian [8]; [31]): 40
- Plant response rating, Horseweed (horseweed; [30]): 0
- Plant response rating, Horseweed (horseweed; [31]): 40
- Plant response rating, Barnyardgrass (barnyardgrass [9]; [28]): 100
- Barnyardgrass plant response rating (barnyardgrass [9]; [29]): 50
- Plant response rating, Wheat (wheat [10]; [30]): 20
- Plant response rating, Wheat (wheat [10]; [31]): 30
- Plant response rating, Soybean (soybean [11]; [30]): 100
- Plant response rating, Soybean (soybean [11]; [31]): 100
- Plant response rating, Corn (corn [12]; [28]): 20
- Corn plant response rating (corn [12]; [29]): 10
- Plant response rating, Blackgrass (blackgrass [13]; [28]): 70
- Blackgrass plant response rating (blackgrass [13]; [29]): 20
- Plant response rating, Ryegrass, Italian (ryegrass, Italian [14]; [28]): 90
- Ryegrass, Italian plant response rating (ryegrass, Italian [14]; [29]): 80
- Plant response rating, Oat, Wild (oat, wild [15]; [30]): 20
- Plant response rating, Oat, Wild (oat, wild [15]; [31]): 20
- Plant response rating, Sedge, Umbrella (Flood) (sedge, umbrella): 90
- Plant response rating, Barnyardgrass (barnyardgrass [16]; [30]): 20
- Plant response rating, Barnyardgrass (barnyardgrass [16]; [31]): 20
- Plant response rating, Soybean (soybean [17]; [28]): 80
- Soybean plant response rating (soybean [17]; [29]): 30
- Plant response rating, Ragweed (ragweed [18]; [30]): 40
- Plant response rating, Ragweed (ragweed [18]; [31]): 40
- Plant response rating, Kochia (kochia [19]; [28]): 100
- Kochia plant response rating (kochia [19]; [29]): 90
- Plant response rating, Ducksalad (Flood) (ducksalad): 70
- Plant response rating, Blackgrass (blackgrass [20]; [30]): 0
- Plant response rating, Blackgrass (blackgrass [20]; [31]): 80
- Plant response rating, Wheat (wheat [21]; [28]): 30
- Wheat plant response rating (wheat [21]; [29]): 10
- Plant response rating, Kochia (kochia [22]; [30]): 70
- Plant response rating, Kochia (kochia [22]; [31]): 100
- Plant response rating, Ragweed (ragweed [23]; [28]): 0
- Ragweed plant response rating (ragweed [23]; [29]): 10
